Source: US20180280480A1, “COMPOSITIONS AND PEPTIDES HAVING DUAL GLP-1R AND GLP-2R AGONIST ACTIVITY” (priority 2014, published 2018)

How the values were obtained:
C57BL/6J mice = assay: GLP1R-GLP2R dual agonist compound study: cumulative food intake; format: in vivo
Excerpt: Forty (40, n=10, 4 groups) male C57BL/6J mice obtained from Taconic, Denmark, were used. At the time of the experiment, the mice had reached an age of 9-10 weeks. The mice were acclimatized for one week in their new environment and offered regular chow diet (Altromin 1324, Brogaarden A/S, Denmark) and domestic quality tap water. Animals were housed two per cage during the study, in a light-, temperature-, and humidity-controlled room (12-hour light: 12-hour dark cycle, lights on/off at 4 AM/4 PM hour; 22±1° C.; 50±10% relative humidity). […] Animals were uniquely identified with implantable microchips (Pet ID Microchip, E-vet) in all mice upon arrival. Animals were identified using the WS-2 weight station (MBrose ApS, Faaborg, Denmark) connected to a laptop running the HM02Lab software (Ellegaard Systems, Faaborg, Denmark). The HM02Lab software matches the body weight with ID and calculates the dose directly based on the body weight. All mice were handled for 3 days prior to the experiment to acclimatize the animals to handling and injections.

[1] = tested on: Diet Induced Obese (DIO) Sprague-Dawley Rats; assay: Body weight and whole body fat mass in DIO Sprague-Dawley rats; format: in vivo; details: for Body weight: mean ± S.E.M.; for Whole body fat mass: EchoMRI
Procedure: Thirty (30) male Sprague-Dawley rats (7 weeks of age) were purchased from Taconic (Denmark) and transferred to the Gubra animal unit. During the acclimatization period, the rats were housed two per cage under a 12:12 light dark cycle (lights on from 04.00-16.00 h) at controlled temperature conditions (22±1° C.; 50±10% relative humidity). Throughout the study the rats had ad libitum access to a two choice diet—regular Altromin 1324 rodent chow (Brogaarden, Denmark) and a paste made from Chocolate spread (Nutella, Ferrero Italy), peanut butter and powdered regular Altromin 1324 rodent chow (Brogaarden, Denmark). The animals were kept on the diet for 65 weeks before experimentation. Animals were switched to single housing during the entire study period (day −6 to 25).
The animals were randomized into three study groups (n=10 per group) based on body weight recorded on day −1 to participate in one of the following groups: Group 1: Vehicle, SC, BID. Group 2: SEQ ID NO 6, 82 nmol/kg (day 2-7), 164 nmol/kg (day 8-14) and 328 nmol/kg (day 15-25), SC, BID. […] Dosing took place in the morning (between 06.00 and 08.00 h) and prior to lights out in the afternoon (between 13.30 and 14.00 h). Doses were administered subcutaneously with a dose volume 1 ml/kg. All rats were handled prior to experimentation to acclimatize the animals to handling and procedures. Body weight was measured from day −3 to termination on day 25. Total body fat mass was analyzed before study start (day −1) and before termination (study day 25) by non-invasive EchoMRI-900 (EchoMRI, USA). On day 23 of the study, rats were subjected to an oral glucose tolerance test (OGTT). Animals were mildly fasted as all food was removed 4 hours prior to the oral glucose load. Vehicle and compounds were administered subcutaneously (SC) 2 hours prior to the OGTT. At t=0 rats received an oral glucose load (2 g/kg; 4 ml/kg; […], Fresenius Kabi, Sweden). Glucose was given as gavage via a gastrically-placed tube connected to a syringe ensuring accurate dosing. Blood glucose was measured from tail vein blood before (t=−120 and 0 min, baseline) and after glucose administration (t=15, 30, 60 and 120 min). Blood samples was collected into 10 μl heparinized glass capillary tubes and immediately suspended in buffer (0.5 ml of glucose/lactate system solution (EKF-diagnostics, Germany) and analyzed for glucose on the test day using a BIOSEN c-Line glucose meter (EKF-diagnostics, Germany) according to manufacturer's instructions. On study day 25, the rats were terminated and the GI tract was removed. Intestines were flushed with saline, weighed and then fixated in 4% PFA for determination of small and large intestinal volume by stereological methods as described by Hansen et al. 2013, Am J Transl Res 5(3): 347-58).

[2] = Day 25, 328 nmol/kg (escalated 82, 164, 328 nmol/kg SC BID)

R^1-HGDGSFTSELSTYLDALAARDFIAWLIQTKITDR^2 [SEQ ID NO 6]
Cumulative food intake (C57BL/6J mice; Day 0-7, 3.0 mg/kg BID SC, mean ± S.E.M.): 21.96 ± 1.46 g
cumulative food intake compared to vehicle and teduglutide (C57BL/6J mice; dosed twice daily for 7 days): considerably reduced cumulative food intake
Body weight ([1]; Day 0 (baseline), 328 nmol/kg group (escalated 82, 164, 328 nmol/kg SC BID)): 962.7 ± 27.8 g
Whole body fat mass [1, 2]: 292.2 ± 25.4 g
Body weight [1, 2]: 803.9 ± 35.5 g
Whole body fat mass ([1]; Day −1 (baseline), 328 nmol/kg group (escalated 82, 164, 328 nmol/kg SC BID)): 400.3 ± 18.3 g
